Assay results published in patent publication US9938543B2, “Methods, reagents and cells for biosynthesizing glutarate methyl ester” (priority 2014, dated 2018).

Legend:
Assay type in all cases: biochemical
[1] = system: carboxylate reductase of SEQ ID NO: 6 (Mycobacterium massiliense); test: Carboxylate reductase enzyme activity assay, glutarate methyl ester as substrate (NADPH consumption at 340 nm); details: 2 mM glutarate methyl ester, 1 mM NADPH, 1 mM ATP, pH 7.5, room temperature 20 min; enhanced by gene product of sfp; against empty vector control
Protocol: (§1) A nucleotide sequence encoding a His-tag was added to the genes from Mycobacterium marinum, Mycobacterium smegmatis, Segniliparus rugosus, Mycobacterium massiliense, and Segniliparus rotundus that encode the carboxylate reductases of SEQ ID NOs: 2-4, 6 and 7, respectively (GenBank Accession Nos. ACC40567.1, ABK71854.1, EFV11917.1, EIV11143.1, and ADG98140.1, respectively) (see FIG. 8) such that N-terminal HIS tagged carboxylate reductases could be produced. Each of the modified genes was cloned into a pET Duet expression vector alongside a sfp gene encoding a His-tagged phosphopantetheine transferase from Bacillus subtilis, both under control of the T7 promoter. Each expression vector was transformed into a BL21[DE3] E. coli host along with the expression vectors from Example 2. Each resulting recombinant E. coli strain was cultivated at 37° C. in a 250 mL shake flask culture containing 50 mL LB media and antibiotic selection pressure, with shaking at 230 rpm. Each culture was induced overnight at 37° C. using an auto-induction media.
(§2) The pellet from each induced shake flask culture was harvested via centrifugation. Each pellet was resuspended and lysed via sonication. The cell debris was separated from the supernatant via centrifugation. The carboxylate reductases and phosphopantetheine transferase were purified from the supernatant using Ni-affinity chromatography, diluted 10-fold into 50 mM HEPES buffer (pH=7.5) and concentrated via ultrafiltration.
(§3) The enzyme activity assay was performed in triplicate in a buffer composed of a final concentration of 50 mM HEPES buffer (pH=7.5), 2 mM glutarate methyl ester, 10 mM MgCl2, 1 mM ATP and 1 mM NADPH. The enzyme activity assay reaction was initiated by adding purified carboxylate reductase and phosphopantetheine transferase or the empty vector control to the assay buffer containing the glutarate methyl ester and then incubated at room temperature for 20 min. The consumption of NADPH was monitored by absorbance at 340 nm.

[2] = system: carboxylate reductase of SEQ ID NO: 7 (Segniliparus rotundus); test: as above; details: 2 mM glutarate methyl ester, 1 mM NADPH, 1 mM ATP, pH 7.5, room temperature 20 min; enhanced by gene product of sfp; against empty vector control
Protocol: as §1, §2, §3

[3] = target: T1, carboxylate reductase of SEQ ID NO: 2 (Mycobacterium marinum) (Mycobacterium marinum, UniProt B2HN69); test: as above; details: 2 mM glutarate methyl ester, 1 mM NADPH, 1 mM ATP, pH 7.5, room temperature 20 min; enhanced by gene product of sfp; against empty vector control
T1 construct: His-tag (N); made in house; host or cells: E. coli BL21[DE3], pET Duet vector
T1 sequence (B2HN69 whole entry): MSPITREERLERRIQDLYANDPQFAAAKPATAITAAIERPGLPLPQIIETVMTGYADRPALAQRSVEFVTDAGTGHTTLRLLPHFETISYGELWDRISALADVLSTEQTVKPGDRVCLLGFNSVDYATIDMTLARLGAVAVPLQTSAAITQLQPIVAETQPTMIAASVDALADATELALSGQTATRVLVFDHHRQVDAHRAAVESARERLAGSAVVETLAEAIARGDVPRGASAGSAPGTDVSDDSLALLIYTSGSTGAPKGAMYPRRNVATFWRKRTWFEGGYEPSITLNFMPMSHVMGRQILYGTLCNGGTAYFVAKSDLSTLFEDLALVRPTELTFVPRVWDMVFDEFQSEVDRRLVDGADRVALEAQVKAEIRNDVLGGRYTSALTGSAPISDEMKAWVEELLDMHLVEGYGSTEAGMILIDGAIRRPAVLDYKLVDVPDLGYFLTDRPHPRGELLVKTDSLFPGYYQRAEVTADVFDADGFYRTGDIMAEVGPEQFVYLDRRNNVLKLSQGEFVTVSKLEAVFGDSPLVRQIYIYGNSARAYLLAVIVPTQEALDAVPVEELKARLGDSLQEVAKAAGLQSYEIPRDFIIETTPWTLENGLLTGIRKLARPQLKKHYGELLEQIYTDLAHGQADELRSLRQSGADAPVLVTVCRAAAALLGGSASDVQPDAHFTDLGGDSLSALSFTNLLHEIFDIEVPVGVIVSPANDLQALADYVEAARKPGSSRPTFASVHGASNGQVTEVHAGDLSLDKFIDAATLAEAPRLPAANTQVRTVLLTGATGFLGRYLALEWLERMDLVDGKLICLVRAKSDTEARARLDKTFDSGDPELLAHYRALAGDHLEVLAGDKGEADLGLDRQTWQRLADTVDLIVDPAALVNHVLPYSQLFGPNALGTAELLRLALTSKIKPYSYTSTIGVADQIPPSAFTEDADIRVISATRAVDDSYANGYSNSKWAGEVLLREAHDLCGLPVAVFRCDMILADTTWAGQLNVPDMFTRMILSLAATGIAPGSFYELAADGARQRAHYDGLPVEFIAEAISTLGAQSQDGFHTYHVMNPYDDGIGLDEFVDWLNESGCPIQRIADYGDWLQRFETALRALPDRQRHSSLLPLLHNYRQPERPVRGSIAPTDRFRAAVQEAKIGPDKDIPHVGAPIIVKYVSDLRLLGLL
Protocol: as §1, §2, §3

[4] = system: carboxylate reductase of SEQ ID NO: 3 (Mycobacterium smegmatis); test: as above; details: 2 mM glutarate methyl ester, 1 mM NADPH, 1 mM ATP, pH 7.5, room temperature 20 min; enhanced by gene product of sfp; against empty vector control
Protocol: as §1, §2, §3

[5] = target: T2, pimeloyl-[acp] methyl ester methylesterase of SEQ ID NO: 1 (Escherichia coli, UniProt P13001); test: Pimeloyl-[acp] methyl ester methylesterase enzyme activity assay, glutaryl-CoA methyl ester to glutaryl-CoA (LC-MS); details: 5 mM glutaryl-CoA methyl ester, 10 μM enzyme, 25 mM Tris.HCl pH 7.0, 30° C., 1 h
T2 construct: His-tag (C); made in house; host or cells: E. coli BL21[DE3], pET28b+ vector
T2 sequence (P13001 whole entry): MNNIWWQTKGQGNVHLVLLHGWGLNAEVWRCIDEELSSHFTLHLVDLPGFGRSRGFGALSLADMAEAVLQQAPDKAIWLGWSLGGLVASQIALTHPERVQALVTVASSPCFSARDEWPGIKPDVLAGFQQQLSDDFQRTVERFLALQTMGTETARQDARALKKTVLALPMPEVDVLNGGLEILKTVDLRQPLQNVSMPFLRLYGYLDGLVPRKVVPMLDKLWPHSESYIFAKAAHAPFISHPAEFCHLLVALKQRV
Protocol: A sequence encoding an C-terminal His-tag was added to the gene from Escherichia coli encoding the pimeloyl-[acp] methyl ester methylesterase of SEQ ID NO: 1 (see FIG. 8) such that C-terminal HIS tagged pimeloyl-[acp] methyl ester methylesterase could be produced. The resulting modified gene was cloned into a pET28b+ expression vector under control of the T7 promoter and the expression vector was transformed into a BL21[DE3] E. coli host. The resulting recombinant E. coli strain was cultivated at 37° C. in a 500 mL shake flask culture containing 100 mL LB media and antibiotic selection pressure, with shaking at 230 rpm. Each culture was induced overnight at 18° C. using 0.3 mM IPTG.
The pellet from each induced shake flask culture was harvested via centrifugation. Each pellet was resuspended and lysed via sonication. The cell debris was separated from the supernatant via centrifugation. The pimeloyl-[acp] methyl ester methylesterase was purified from the supernatant using Ni-affinity chromatography, buffer exchanged and concentrated into 20 mM HEPES buffer (pH=7.5) via ultrafiltration and stored at 4° C.
Enzyme activity assays converting glutaryl-CoA methyl ester to glutaryl-CoA were performed in triplicate in a buffer composed of a final concentration of 25 mM Tris.HCl buffer (pH=7.0) and 5 [mM] glutaryl-CoA methyl ester. […] The formation of glutaryl-CoA was quantified via LC-MS.

For `COC(=O)CCCC(=O)O` [glutarate methyl ester], the “acceptance as substrate, forming glutarate semialdehyde methyl ester” value [1] was “accepted glutarate methyl ester as substrate”, the “acceptance as substrate, forming glutarate semialdehyde methyl ester” value [2] was “accepted glutarate methyl ester as substrate” and the “acceptance as substrate, forming glutarate semialdehyde methyl ester” value [3] was “accepted glutarate methyl ester as substrate”. For the same compound, the “acceptance as substrate, forming glutarate semialdehyde methyl ester” value [4] was “accepted glutarate methyl ester as substrate”.

For `COC(=O)CCCC(=O)SCCNC(=O)CCNC(=O)C(O)C(C)(C)COP(=O)(O)OP(=O)(O)OCC1OC(n2cnc3c(N)ncnc32)C(O)C1OP(=O)(O)O` (centres unmarked) [glutaryl-CoA methyl ester], the “acceptance as substrate, forming glutaryl-CoA” value [5] was “accepted glutaryl-CoA methyl ester as substrate”.
